Measurements as given in patent EP4471048A1, “PEPTIDE INHIBITORS OF INTERLEUKIN-23 RECEPTOR” (Zealand Pharma A/S, priority 2023, dated 2024).
Read-outs that look alike come from different tables or passages of the source. *1 amine or outer side, *2 acyl side, *3 side chain or, on linkers, in order; H or OH if unused. Where a SMILES comes first, the peptide text is derived from it. Bridges are numbered along the chain shown (N, C = ends). [ ]: non-standard residue; d: D form. hAad = O=C([C@H](CCCCC(=O)[*:3])N[*:1])[*:2]; 2Nal = N[C@@H](Cc1ccc2ccccc2c1)C(=O)O; AEF = NCCOc1ccc(C[C@H](N)C(=O)O)cc1; X1 = O=C(Cc1ccc(CN[*:1])cc1)[*:2]; 3Pal = N[C@@H](Cc1cccnc1)C(=O)O; αMeL = CC(C)C[C@](C)(N)C(=O)O; CH2COCH2 = O=C(C[*:1])C[*:2]; 3Amb = NCc1cccc(C(=O)O)c1; dDab = NCC[C@@H](N)C(=O)O; Dab = NCC[C@H](N)C(=O)O

Experiments:
human IL-23R = biological target: T1, human IL-23R (Homo sapiens, UniProt Q5VWK5); test: biochemical
T1 sequence (Q5VWK5 22-629): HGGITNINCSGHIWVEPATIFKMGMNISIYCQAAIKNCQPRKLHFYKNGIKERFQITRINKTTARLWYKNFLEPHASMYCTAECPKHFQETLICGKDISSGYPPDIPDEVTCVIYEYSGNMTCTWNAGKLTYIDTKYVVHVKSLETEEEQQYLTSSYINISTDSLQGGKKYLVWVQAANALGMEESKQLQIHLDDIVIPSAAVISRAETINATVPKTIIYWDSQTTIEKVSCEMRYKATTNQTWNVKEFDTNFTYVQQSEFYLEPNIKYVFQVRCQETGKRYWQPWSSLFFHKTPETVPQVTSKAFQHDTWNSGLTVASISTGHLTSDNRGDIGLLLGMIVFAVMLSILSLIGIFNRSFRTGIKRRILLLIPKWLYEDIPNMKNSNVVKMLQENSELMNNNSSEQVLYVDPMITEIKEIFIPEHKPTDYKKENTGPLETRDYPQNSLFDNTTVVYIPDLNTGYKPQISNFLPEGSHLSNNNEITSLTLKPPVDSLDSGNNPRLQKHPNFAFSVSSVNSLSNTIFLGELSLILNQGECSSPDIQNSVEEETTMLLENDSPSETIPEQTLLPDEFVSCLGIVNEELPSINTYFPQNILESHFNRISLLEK
Procedure, shortened: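 BRET displacement of a TAMRA-labelled reference compound from N-terminal Nanoluc-IL-23R fusion protein in membranes from stably transfected HEK293 cells. Incubation 2 h at room temperature, then Nanoluc substrate was added and the TAMRA/Nanoluc ratio read. IC50 and maximal displacement came from 4-parameter logistic fits.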

[1] = biological target: IL-23 mediated signalling (Homo sapiens, UniProt Q5VWK5); test: Functional inhibition of IL-23 mediated STAT3 signalling (phospho-STAT3 MSD) in DB cells; type: cell-based; conditions: for Emax: read-out: hIL-23 (pSTAT3) antagonist % inhibition
Source text: Upon binding of IL-23, the IL-23R forms a heterodimer signalling complex together with IL-12R β1, which through the JAK2/STAT3 pathway promotes phosphorylation of STAT3 to form phospho-STAT3.
For compounds tested in this assay, the response was normalized relative to control values to calculate the IC50 and maximal inhibitory response from a concentration response curve of the compound in presence of a fixed concentration of human IL-23.
The assay procedure was as follows. […] Following preincubation of the DB cells with inhibitor for 15 min in a cell incubator (37 °C, 5% CO2), 20 µL of the prepared 3X the EC80 of hIL-23 solution was added to each well and incubated for 90 min in a cell incubator (37 °C, 5% CO2). For some wells buffer only or IL-23 only corresponding to the EC80 was added to obtain readouts needed for normalization. To terminate the assay, the plate was spun at 1000 G for 5 min to pellet cells, the supernatant removed using an 8-channel manual pipette, and then added 50 µL/well Complete Lysis Buffer from the MSD STAT3 kit (Cat# K150SVD, Mesoscale) to the cell pellet. To completely lyse cells to release phospho-STAT3 for detection, the plate was shaken for 10 min at room temperature (500 rpm) sealed with aluminium foil and placed at -80 °C for a minimum of 15 min. Detection of the phospho-STAT3 level in the cell lysate from the individual wells was determined using the MSD STAT3 kit (Cat# K150SVD, Mesoscale) and read on a Meso QuickPlex SQ 120 plate reader (Mesoscale).
For data analysis raw data counts from the Meso QuickPlex SQ 120 plate reader were normalized relative to the response by the EC80 of h1L-23 alone (no compound added) and the buffer level. Compound potency (IC50) and maximal inhibitory response (% inhibition) were estimated by computer-aided curve fitting using a 4-parameter logistic (4PL) nonlinear model. […] Table 3-2: hIL-23 (pSTAT3) antagonist IC50 and % inhibition

[2] = Peptide stability in simulated intestinal fluid (SIF); type: in vitro ADME; conditions: pig, 37 °C, porcine pancreatin; for remaining at 1 h, 10 µM: pH 6.8, 1 h; for remaining at 4 h, 10 µM: pH 6.8, 4 h, read-out: SIF (% remaining 4 h)
Procedure, shortened: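 Peptides were incubated at 37 °C with gentle shaking in pH 6.8 potassium phosphate SIF containing porcine pancreatin (10 g/L). Supernatants were analysed by LC-HRMS. Percent remaining at each timepoint, including 4 h, was calculated relative to time zero from absolute peak areas.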

[3] = Table 3-2, DB cells, hIL-23 at EC80, read-out: hIL-23 (pSTAT3) antagonist IC50
[4] = Table 3-2, maximal inhibitory response, DB cells, hIL-23 at EC80

Structure (SMILES)	% displacement (hIL-23R NIuc) (human IL-23R) [%]	IC50 (human IL-23R) [nM]	Ki (human IL-23R) [nM]	IC50 [1, 3] [nM]	Emax [1, 4] [%]	remaining at 1 h, 10 µM [2] [%]	remaining at 4 h, 10 µM [2] [%]	Emax (human IL-23R; read-out: % displacement (hIL-23R NIuc)) [%]	IC50 [1] [nM]	Emax ([1]; DB) [%]
CC(=O)N[C@H]1CCCCNC(=O)CC[C@@H](C(=O)N[C@@H](CCN)C(=O)N[C@@H](Cc2cccnc2)C(N)=O)NC(=O)[C@](C)(CC(C)C)NC(=O)[C@H](Cc2ccc3ccccc3c2)NC(=O)[C@H](Cc2ccc(OCCN)cc2)NC(=O)[C@@H]2CSCC(=O)CSC[C@H](NC(=O)[C@H]([C@@H](C)O)NC1=O)C(=O)N[C@@H](Cc1c[nH]c3ccccc13)C(=O)N[C@@H](CCC(N)=O)C(=O)N2 [Ref 155, [Ac]-K(1c)TC(2a)WQC(2a)[Y(2-aminoethoxy)][2-Nal][2-Me-Leu]E(1c)[Dab][3-(3-Pyridyl)-Ala]-[NH2], reference compound] (Ac-KTCWQC[AEF][2Nal][αMeL]E[Dab][3Pal]-NH2; lactam 1-10; linker 3-6 via CH2COCH2)	97	0.0099	0.00805	–	100	–	–	–	0.031	–
CC(C)C[C@]1(C)NC(=O)[C@H](Cc2c[nH]c3ccccc23)NC(=O)[C@H](Cc2c[nH]c3ccccc23)NC(=O)[C@@H]2CSCC(=O)CSC[C@H](NC(=O)[C@H]([C@@H](C)O)NC(=O)[C@@H](NC(=O)CN)CSCC(=O)CSC[C@@H](C(=O)N[C@@H](CO)C(N)=O)NC1=O)C(=O)N[C@@H](Cc1c[nH]c3ccccc13)C(=O)N[C@@H](CCC(=O)O)C(=O)N2 (single isomer, unassigned) [I5 (isomer 3), H-GC(1a)TC(2a)WEC(2a)WW[2-Me-Leu]C(1a)S-[NH2], reference compound]	–	90	–	–	–	–	–	–	–	91
CC(C)C[C@]1(C)NC(=O)[C@H](Cc2ccc3ccccc3c2)NC(=O)[C@H](Cc2ccc(OCCN)cc2)NC(=O)[C@@H]2CSCC(=O)CSC[C@H](NC(=O)[C@H](CO)NC(=O)Cc3ccc(cc3)CNC(=O)CC[C@@H](C(=O)N[C@H](CCCNC(=N)N)C(N)=O)NC1=O)C(=O)N[C@@H](Cc1c[nH]c3ccccc13)C(=O)N[C@@H](CCC(N)=O)C(=O)N2 [Ref 80, [4-Aminomethyl-phenylacetyl](1c)*SC(2a)WQC(2a)[Y(2-aminoethoxy)][2-Nal][2-Me-Leu]E(1c)[{d}R]-[NH2], reference compound] ([X1]SCWQC[AEF][2Nal][αMeL]E[dR]-NH2; linker 3-6 via CH2COCH2; lactam N-10)	98	0.18	0.15	11	97	84	86	–	–	–

Continued by falling IC50 (human IL-23R), values first:

% displacement (hIL-23R NIuc) (human IL-23R) [%]	IC50 (human IL-23R) [nM]	Ki (human IL-23R) [nM]	IC50 [1, 3] [nM]	Emax [1, 4] [%]	remaining at 1 h, 10 µM [2] [%]	remaining at 4 h, 10 µM [2] [%]	Emax (human IL-23R; read-out: % displacement (hIL-23R NIuc)) [%]	Structure (SMILES)	IC50 [1] [nM]	Emax ([1]; DB) [%]
–	0.091	–	1.5	101	–	–	105	CC(C)C[C@]1(C)NC(=O)[C@H](Cc2ccc3ccccc3c2)NC(=O)[C@H](Cc2ccc(OCCN)cc2)NC(=O)[C@@H]2CC(=O)N[C@H](CCCCNC(=O)CC[C@@H](C(=O)N[C@@H](CCN)C(=O)N[C@@H](Cc3cccnc3)C(N)=O)NC1=O)C(=O)N[C@@H]([C@@H](C)O)C(=O)N[C@@H](C(C)C)C(=O)N[C@@H](Cc1c[nH]c3ccccc13)C(=O)N[C@@H](CCC(N)=O)C(=O)N2 [Compound 3, [{d}K](1c)(6c)^†TVWQD(6c)[Y(2-aminoethoxy)][2-Nal][2-Me-Leu]E(1c)[Dab][3-(3-Pyridyl)-Ala]-[NH2]] ([dK]TVWQD[AEF][2Nal][αMeL]E[Dab][3Pal]-NH2; lactam 1-10, N-6)	–	–
103	0.082	0.0665	11	97	95	77	–	CC(C)C[C@]1(C)NC(=O)[C@H](Cc2ccc3ccccc3c2)NC(=O)[C@H](Cc2ccc(OCCN)cc2)NC(=O)[C@@H]2CSCC(=O)CSC[C@H](NC(=O)[C@H](CO)NC(=O)Cc3ccc(cc3)CNC(=O)CC[C@@H](C(=O)N[C@@H](CCN)C(N)=O)NC1=O)C(=O)N[C@@H](Cc1c[nH]c3ccccc13)C(=O)N[C@@H](CCC(N)=O)C(=O)N2 [Ref 82, [4-Aminomethyl-phenylacetyl](1c)*SC(2a)WQC(2a)[Y(2-aminoethoxy)][2-Nal][2-Me-Leu]E(1c)[Dab]-[NH2], reference compound] ([X1]SCWQC[AEF][2Nal][αMeL]E[Dab]-NH2; linker 3-6 via CH2COCH2; lactam N-10)	–	–
100	0.058	0.0475	7.8	103	–	–	–	CC(C)C[C@]1(C)NC(=O)[C@H](Cc2ccc3ccccc3c2)NC(=O)[C@H](Cc2ccc(OCCN)cc2)NC(=O)[C@@H]2CSCC(=O)CSC[C@H](NC(=O)[C@H](CO)NC(=O)Cc3ccc(cc3)CNC(=O)CC[C@@H](C(=O)N[C@@H](CCCNC(=N)N)C(N)=O)NC1=O)C(=O)N[C@@H](Cc1c[nH]c3ccccc13)C(=O)N[C@@H](CCC(N)=O)C(=O)N2 [Ref 52, [4-Aminomethyl-phenylacetyl](1c)*SC(2a)WQC(2a)[Y(2-aminoethoxy)][2-Nal][2-Me-Leu]E(1c)R-[NH2], reference compound] ([X1]SCWQC[AEF][2Nal][αMeL]ER-NH2; linker 3-6 via CH2COCH2; lactam N-10)	–	–
100	0.025	0.0205	0.13	100	5	0	–	CC(C)C[C@]1(C)NC(=O)[C@H](Cc2ccc3ccccc3c2)NC(=O)[C@H](Cc2ccc(OCCN)cc2)NC(=O)[C@@H]2CSCC(=O)CSC[C@H](NC(=O)[C@H](CO)NC(=O)c3cccc(c3)CNC(=O)CC[C@@H](C(=O)N[C@@H](CCCNC(=N)N)C(=O)N[C@@H](Cc3cccnc3)C(N)=O)NC1=O)C(=O)N[C@@H](Cc1c[nH]c3ccccc13)C(=O)N[C@@H](CCC(N)=O)C(=O)N2 [Ref 78, [(3-Aminomethyl)benzoyl](1c)*SC(2a)WQC(2a)[Y(2-aminoethoxy)][2-Nal][2-Me-Leu]E(1c)R[3-(3-Pyridyl)-Ala]-[NH2], reference compound] ([3Amb]SCWQC[AEF][2Nal][αMeL]ER[3Pal]-NH2; linker 3-6 via CH2COCH2; lactam N-10)	–	–
104	0.017	–	–	99	–	–	–	CC(C)C[C@]1(C)NC(=O)[C@H](Cc2ccc3ccccc3c2)NC(=O)[C@H](Cc2ccc(OCCN)cc2)NC(=O)[C@@H]2CCC(=O)N[C@H](CCNC(=O)CCCC[C@@H](C(=O)N[C@@H](CCN)C(=O)N[C@@H](Cc3cccnc3)C(N)=O)NC1=O)C(=O)N[C@@H]([C@@H](C)O)C(=O)N[C@@H](C(C)C)C(=O)N[C@@H](Cc1c[nH]c3ccccc13)C(=O)N[C@@H](CCC(N)=O)C(=O)N2 [Compound 7, [{d}Dab](1c)(6c)^†TVWQE(6c)[Y(2-aminoethoxy)][2-Nal][2-Me-Leu][2-Amino-6-carboxyhexanoyl](1 c)[Dab][3-(3-Pyridyl)-Ala]-[NH2]] ([dDab]TVWQE[AEF][2Nal][αMeL][hAad][Dab][3Pal]-NH2; lactam 1-10, N-6)	–	–
